For the assay, the target named is IKZF2 (Homo sapiens (Human), UniProt Q96SW2+Q9UKS7). The assay is described as follows: IKZF2 HiBiT Assay (Jurkat-IKZF2-HiBiT cell line). The format is cell-based. The following applies: Jurkat-IKZF2-HiBiT cells, 24 hours; for DC50: read-out: HiBit assay degradation analysis DC50; for Dmax: read-out: HiBit assay degradation analysis Dmax. The method, boiled down: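 IKZF2 degradation was assessed as HiBiT luminescence in Jurkat-IKZF2-HiBiT cells, using lytic detection after 24 h of compound treatment at 37 °C, 5% CO2.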
Chain of IKZF2 (Q9UKS7 whole entry): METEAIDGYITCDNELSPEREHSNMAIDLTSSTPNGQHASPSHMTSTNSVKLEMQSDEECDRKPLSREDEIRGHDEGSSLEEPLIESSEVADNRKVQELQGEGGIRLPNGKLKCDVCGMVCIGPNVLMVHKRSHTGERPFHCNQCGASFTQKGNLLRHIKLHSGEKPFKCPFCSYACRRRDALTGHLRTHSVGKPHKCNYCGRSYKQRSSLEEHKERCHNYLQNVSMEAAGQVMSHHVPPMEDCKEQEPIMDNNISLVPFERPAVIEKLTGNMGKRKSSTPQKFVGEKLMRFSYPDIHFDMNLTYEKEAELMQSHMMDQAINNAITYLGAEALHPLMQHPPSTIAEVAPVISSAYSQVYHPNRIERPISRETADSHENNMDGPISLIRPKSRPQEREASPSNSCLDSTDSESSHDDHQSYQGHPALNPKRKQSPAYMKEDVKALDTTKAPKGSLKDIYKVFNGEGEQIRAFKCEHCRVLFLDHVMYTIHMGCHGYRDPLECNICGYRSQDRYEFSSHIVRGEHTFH
Chain of IKZF2 (Q96SW2 whole entry): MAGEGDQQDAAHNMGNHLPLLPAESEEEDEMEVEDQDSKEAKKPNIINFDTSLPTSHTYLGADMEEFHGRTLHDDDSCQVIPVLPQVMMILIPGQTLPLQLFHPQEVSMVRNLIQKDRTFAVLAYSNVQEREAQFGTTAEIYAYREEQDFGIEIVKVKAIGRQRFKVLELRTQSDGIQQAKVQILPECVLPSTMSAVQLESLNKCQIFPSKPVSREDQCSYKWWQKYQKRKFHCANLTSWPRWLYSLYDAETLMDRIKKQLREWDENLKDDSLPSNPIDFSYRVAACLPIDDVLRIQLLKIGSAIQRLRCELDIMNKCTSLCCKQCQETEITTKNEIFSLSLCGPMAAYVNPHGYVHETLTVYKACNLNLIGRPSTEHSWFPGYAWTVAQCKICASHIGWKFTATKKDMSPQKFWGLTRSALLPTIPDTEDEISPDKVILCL
Chain of IKZF2 (Q16531 whole entry partner): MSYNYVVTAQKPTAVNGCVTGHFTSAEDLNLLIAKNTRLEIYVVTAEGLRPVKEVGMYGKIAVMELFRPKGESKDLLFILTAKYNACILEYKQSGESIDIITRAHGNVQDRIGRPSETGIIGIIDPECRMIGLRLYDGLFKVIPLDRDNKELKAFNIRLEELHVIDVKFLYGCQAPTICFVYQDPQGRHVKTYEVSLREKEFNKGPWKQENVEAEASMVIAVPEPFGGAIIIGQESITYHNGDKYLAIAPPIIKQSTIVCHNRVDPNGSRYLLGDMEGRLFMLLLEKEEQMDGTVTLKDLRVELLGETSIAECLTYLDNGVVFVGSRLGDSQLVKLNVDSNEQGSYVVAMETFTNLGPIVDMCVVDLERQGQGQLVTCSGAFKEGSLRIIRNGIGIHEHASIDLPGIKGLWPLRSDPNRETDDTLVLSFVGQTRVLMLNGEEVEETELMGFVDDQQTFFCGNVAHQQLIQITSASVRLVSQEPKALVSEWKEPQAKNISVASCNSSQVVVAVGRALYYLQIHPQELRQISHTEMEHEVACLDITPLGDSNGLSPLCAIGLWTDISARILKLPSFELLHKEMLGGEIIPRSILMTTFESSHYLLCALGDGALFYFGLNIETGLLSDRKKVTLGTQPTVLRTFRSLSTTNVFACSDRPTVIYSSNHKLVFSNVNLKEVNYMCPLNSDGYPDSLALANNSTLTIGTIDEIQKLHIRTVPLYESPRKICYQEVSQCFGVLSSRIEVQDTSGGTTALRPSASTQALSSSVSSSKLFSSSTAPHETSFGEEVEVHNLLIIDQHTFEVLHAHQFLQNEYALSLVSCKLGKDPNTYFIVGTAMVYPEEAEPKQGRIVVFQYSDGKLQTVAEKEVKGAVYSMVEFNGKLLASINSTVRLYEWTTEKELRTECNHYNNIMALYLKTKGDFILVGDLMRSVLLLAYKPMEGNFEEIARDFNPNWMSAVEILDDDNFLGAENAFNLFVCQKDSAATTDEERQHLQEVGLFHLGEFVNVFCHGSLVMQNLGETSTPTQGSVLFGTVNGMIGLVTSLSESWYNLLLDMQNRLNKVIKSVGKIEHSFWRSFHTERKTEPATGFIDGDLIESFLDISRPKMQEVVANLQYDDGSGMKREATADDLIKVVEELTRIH

Structures are written as SMILES.

For orientation: DC50 means the concentration at which degradation of the target reaches its halfway point. For orientation: Dmax means the largest share of the target that was removed.

For `O=C1CCC(N2Cc3c(ccc4c3OCC43CCN(Cc4ccnc(Cl)c4)CC3)C2=O)C(=O)N1` (centres unmarked) [Compound A250, 3-(1′-((2-chloropyridin-4-yl)methyl)-6-oxo-6,8-dihydro-2H,7H-spiro[furo[2,3-e]isoindole-3,4′-piperidin]-7-yl)piperidine-2,6-dione], the DC50 was more than 500 nM and the Dmax is less than 40%.

As to `O=C1CCC(N2Cc3c(ccc4c3COC43CCN(Cc4cccc(-c5cc[nH]n5)c4)CC3)C2=O)C(=O)N1` (centres unmarked) [Compound A260, 3-(1′-(3-(1H-pyrazol-3-yl)benzyl)-6-oxo-6,8-dihydrospiro[furo[3,4-e]isoindoline-3,4′-piperidin]-7(1H)-yl)piperidine-2,6-dione], the DC50 is more than 500 nM and the greatest degradation seen (Dmax) lay within 40 to 60%.

Turning to `O=C1CCC(N2Cc3c(ccc4c3OCC43CCN(Cc4cnn(C5CCCCC5)c4)CC3)C2=O)C(=O)N1` (centres unmarked) [Compound A220, 3-(1′-((1-cyclohexyl-1H-pyrazol-4-yl)methyl)-6-oxo-6,8-dihydro-2H,7H-spiro[furo[2,3-e]isoindole-3,4′-piperidin]-7-yl)piperidine-2,6-dione], the DC50 was more than 500 nM and the greatest degradation seen (Dmax) is less than 40%.

Consider `COCCn1ncc2c(CN3CCC4(CC3)COc3c4ccc4c3CN(C3CCC(=O)NC3=O)C4=O)cccc21` (centres unmarked) [Compound A343, 3-(1′-((1-(2-methoxyethyl)-1H-indazol-4-yl)methyl)-6-oxo-6,8-dihydro-2H,7H-spiro[furo[2,3-e]isoindole-3,4′-piperidin]-7-yl)piperidine-2,6-dione], for which the DC50 was more than 500 nM and the greatest degradation seen (Dmax) lay in the range of 40 to 60%.

On to `O=C1CCC(N2Cc3c(ccc4c3OCC43CCN(Cc4ccnc5[nH]ccc45)CC3)C2=O)C(=O)N1` (centres unmarked) [Compound A73, 3-(1′-((1H-pyrrolo[2,3-b]pyridin-4-yl)methyl)-6-oxo-6,8-dihydro-2H,7H-spiro[furo[2,3-e]isoindole-3,4′-piperidin]-7-yl)piperidine-2,6-dione], for which the 50% degradation concentration (DC50) is more than 500 nM and the Dmax is 40 to 60%.

Take `O=C1CCC(N2Cc3c(ccc4c3OCC43CCN(Cc4cnn(Cc5cccc(Cl)c5)c4)CC3)C2=O)C(=O)N1` (centres unmarked) [Compound A242, 3-(1′-((1-(3-chlorobenzyl)-1H-pyrazol-4-yl)methyl)-6-oxo-6,8-dihydro-2H,7H-spiro[furo[2,3-e]isoindole-3,4′-piperidin]-7-yl) piperidine-2,6-dione]: the half-maximal degradation concentration (DC50) is less than 50 nM and the Dmax is 60 to 80%.

For the compound `O=C1CCC(N2Cc3c(ccc4c3OCC43CCN(Cc4cnc5c(c4)CCCC5)CC3)C2=O)C(=O)N1` (centres unmarked) [Compound A325, 3-(6-oxo-1′-((5,6,7,8-tetrahydroquinolin-3-yl)methyl)-6,8-dihydro-2H,7H-spiro[furo [2,3-e]isoindole-3,4′-piperidin]-7-yl)piperidine-2,6-dione], the DC50 is more than 500 nM and the Dmax is less than 40%.

Turning to `O=C1CCC(N2Cc3c(ccc4c3OCC43CCN(Cc4ccc5[nH]ncc5c4)CC3)C2=O)C(=O)N1` (centres unmarked) [Compound A198, 3-(1′-((1H-indazol-5-yl)methyl)-6-oxo-6,8-dihydro-2H,7H-spiro[furo[2,3-e]isoindole-3,4′-piperidin]-7-yl)piperidine-2,6-dione], the 50% degradation concentration (DC50) fell in the range of 200 to 500 nM and the Dmax was in the range of 60 to 80%.

In the case of `O=C1CCC(N2Cc3c(ccc4c3OCC43CCN(CC4CCOCC4)CC3)C2=O)C(=O)N1` (centres unmarked) [Compound A20, 3-(6-oxo-1′-((tetrahydro-2H-pyran-4-yl)methyl)-6,8-dihydro-2H,7H-spiro[furo[2,3-e]isoindole-3,4′-piperidin]-7-yl)piperidine-2,6-dione], the DC50 is more than 500 nM and the Dmax is less than 40%.

Regarding `Cn1ncc2cc(F)c(CN3CCC4(CC3)COc3c4ccc4c3CN(C3CCC(=O)NC3=O)C4=O)cc21` (centres unmarked) [Compound A140, 3-(1′-((5-fluoro-1-methyl-1H-indazol-6-yl)methyl)-6-oxo-6,8-dihydro-2H,7H-spiro[furo[2,3-e]isoindole-3,4′-piperidin]-7-yl)piperidine-2,6-dione], the 50% degradation concentration (DC50) is more than 500 nM and the maximal degradation (Dmax) fell in the range of 40 to 60%.

Take `O=C1CCC(N2Cc3c(ccc4c3OCC43CCN(Cc4cnn(Cc5ccccc5F)c4)CC3)C2=O)C(=O)N1` (centres unmarked) [Compound A239, 3-(1′-((1-(2-fluorobenzyl)-1H-pyrazol-4-yl)methyl)-6-oxo-6,8-dihydro-2H,7H-spiro[furo[2,3-e]isoindole-3,4′-piperidin]-7-yl)piperidine-2,6-dione]: the DC50 is less than 50 nM and the greatest degradation seen (Dmax) is 60 to 80%.

For the compound `O=C1CCC(N2Cc3c(ccc4c3OCC43CCN(Cc4ccccc4Cl)CC3)C2=O)C(=O)N1` (centres unmarked) [Compound A214, 3-(1′-(2-chlorobenzyl)-6-oxo-6,8-dihydro-2H,7H-spiro[furo[2,3-e]isoindole-3,4′-piperidin]-7-yl)piperidine-2,6-dione], the half-maximal degradation concentration (DC50) was in the range of 200 to 500 nM and the greatest degradation seen (Dmax) is 40 to 60%.

Consider `O=C1CCC(N2Cc3c(ccc4c3OCC43CCN(Cc4cccs4)CC3)C2=O)C(=O)N1` (centres unmarked) [Compound A182, 3-(6-oxo-1′-(thiophen-2-ylmethyl)-6,8-dihydro-2H,7H-spiro[furo[2,3-e]isoindole-3,4′-piperidin]-7-yl)piperidine-2,6-dione], for which the half-maximal degradation concentration (DC50) is more than 500 nM and the maximal degradation (Dmax) lay within 40 to 60%.

`O=C1CCC(N2Cc3c(ccc4c3OCC43CCN(C[C@H]4C[C@@H]4c4ccccc4)CC3)C2=O)C(=O)N1` (relative stereo) [Compound A180, 3-(6-oxo-1′-((trans-2-phenylcyclopropyl)methyl)-6,8-dihydro-2H,7H-spiro[furo[2,3-e]isoindole-3,4′-piperidin]-7-yl)piperidine-2,6-dione]: the DC50 is more than 500 nM and the Dmax is less than 40%.

As for `O=C1CCC(N2Cc3c(ccc4c3OCC43CCN(Cc4cccc5ncccc45)CC3)C2=O)C(=O)N1` (centres unmarked) [Compound A38, 3-(6-oxo-1′-(quinolin-5-ylmethyl)-6,8-dihydro-2H,7H-spiro[furo[2,3-e]isoindole-3,4′-piperidin]-7-yl)piperidine-2,6-dione], the half-maximal degradation concentration (DC50) was in the range of 50 to 200 nM and the Dmax is 60 to 80%.

On to `O=C1CCC(N2Cc3c(ccc4c3OCC43CCN(Cc4cccc5sccc45)CC3)C2=O)C(=O)N1` (centres unmarked) [Compound A186, 3-(1′-(benzo[b]thiophen-4-ylmethyl)-6-oxo-6,8-dihydro-2H,7H-spiro[furo[2,3-e]isoindole-3,4′-piperidin]-7-yl)piperidine-2,6-dione], for which the half-maximal degradation concentration (DC50) was less than 50 nM and the Dmax was more than 80%.

Regarding `N#Cc1cccc(CN2CCC3(CC2)COc2c3ccc3c2CN(C2CCC(=O)NC2=O)C3=O)c1` (centres unmarked) [Compound A219, 3-((7-(2,6-dioxopiperidin-3-yl)-6-oxo-7,8-dihydro-2H,6H-spiro[furo[2,3-e]isoindole-3,4′-piperidin]-1′-yl)methyl)benzonitrile], the DC50 is 200 to 500 nM and the Dmax was in the range of 40 to 60%.

On to `O=C1CCC(N2Cc3c(ccc4c3OCC43CCN(Cc4cccc(Cl)c4)CC3)C2=O)C(=O)N1` (centres unmarked) [Compound A216, 3-(1′-(3-chlorobenzyl)-6-oxo-6,8-dihydro-2H,7H-spiro[furo[2,3-e]isoindole-3,4′-piperidin]-7-yl)piperidine-2,6-dione], for which the 50% degradation concentration (DC50) lay within 50 to 200 nM and the Dmax was 60 to 80%.

Regarding `O=C1CCC(N2Cc3c(ccc4c3OCC43CCN(Cc4ccc5ccccc5c4)CC3)C2=O)C(=O)N1` (centres unmarked) [Compound A34, 3-(1′-(naphthalen-2-ylmethyl)-6-oxo-6,8-dihydro-2H,7H-spiro[furo[2,3-e]isoindole-3,4′-piperidin]-7-yl)piperidine-2,6-dione], the DC50 is less than 50 nM and the Dmax was in the range of 60 to 80%.

As for `O=C1CCC(N2Cc3c(ccc4c3OCC43CCN(Cc4ccc5cc[nH]c5n4)CC3)C2=O)C(=O)N1` (centres unmarked) [Compound A66, 3-(1′-((1H-pyrrolo[2,3-b]pyridin-6-yl)methyl)-6-oxo-6,8-dihydro-2H,7H-spiro[furo[2,3-e]isoindole-3,4′-piperidin]-7-yl)piperidine-2,6-dione], the half-maximal degradation concentration (DC50) is more than 500 nM and the Dmax is 40 to 60%.

As to `O=C1CCC(N2Cc3c(ccc4c3OCC43CCN(Cc4ccc(Cl)cc4)CC3)C2=O)C(=O)N1` (centres unmarked) [Compound A32], the DC50 was more than 500 nM and the Dmax is less than 40%.

For `O=C1CCC(N2Cc3c(ccc4c3OCC43CCN(Cc4cccc(-n5cccn5)c4)CC3)C2=O)C(=O)N1` (centres unmarked) [Compound A107, 3-(1′-(3-(1H-pyrazol-1-yl)benzyl)-6-oxo-6,8-dihydro-2H,7H-spiro[furo[2,3-e]isoindole-3,4′-piperidin]-7-yl)piperidine-2,6-dione], the 50% degradation concentration (DC50) is less than 50 nM and the Dmax was 60 to 80%.

Consider `O=C1CCC(N2Cc3c(ccc4c3OCC43CCN(Cc4ccc(Cl)cc4F)CC3)C2=O)C(=O)N1` (centres unmarked) [Compound A4, 3-(1′-(4-chloro-2-fluorobenzyl)-6-oxo-6,8-dihydro-2H,7H-spiro[furo[2,3-e]isoindole-3,4′-piperidin]-7-yl)piperidine-2,6-dione], for which the DC50 was more than 500 nM and the greatest degradation seen (Dmax) fell in the range of 40 to 60%.

Regarding `Cc1ccc2[nH]ncc2c1CN1CCC2(CC1)COc1c2ccc2c1CN(C1CCC(=O)NC1=O)C2=O` (centres unmarked) [Compound A143, 3-(1′-((5-methyl-1H-indazol-4-yl)methyl)-6-oxo-6,8-dihydro-2H,7H-spiro[furo[2,3-e]isoindole-3,4′-piperidin]-7-yl)piperidine-2,6-dione], the DC50 was less than 50 nM and the greatest degradation seen (Dmax) lay within 60 to 80%.

For the compound `Cn1nc(CN2CCC3(CC2)COc2c3ccc3c2CN(C2CCC(=O)NC2=O)C3=O)c2ccccc21` (centres unmarked) [Compound A226, 3-(1′-((1-methyl-1H-indazol-3-yl)methyl)-6-oxo-6,8-dihydro-2H,7H-spiro[furo[2,3-e]isoindole-3,4′-piperidin]-7-yl)piperidine-2,6-dione], the 50% degradation concentration (DC50) is more than 500 nM and the Dmax was in the range of 40 to 60%.

These data come from patent US20250215012A1, “IKZF2 DEGRADERS AND USES THEREOF” (REGENTS OF THE UNIVERSITY OF MICHIGAN, priority 2022, published 2025).
